We go through 54 compounds from patent US20240400560A1, “BICYCLIC HETEROCYCLIC DERIVATIVE HAVING VIRAL GROWTH INHIBITORY ACTIVITY AND PHARMACEUTICAL COMPOSITION CONTAINING SAME” (Shionogi & Co., Ltd., priority 2021, published 2024).

Structures are written as SMILES.

The target in the first experiment is SARS-CoV-2 3CL protease (Severe acute respiratory syndrome coronavirus 2, UniProt P0DTD1). The experiment can be described thus: Inhibitory activity test against SARS-CoV-2 3CL proteases. Type of experiment: biochemical. The following applies: IC50 (50% SARS-CoV-2 3CL protease inhibitory concentration).
As for `O=c1[nH]cccc1Cn1c(=O)c2ccc(N3[C@@H]4CC[C@H]3CNC4)cc2n(Cc2cc(F)c(F)c(F)c2)c1=O` [Compound I-0379], the IC50 is less than 100 nM.
The same measure, in the same setting: in the case of `O=c1[nH]cccc1Cn1c(=O)c2ccc(N3[C@@H]4CNC[C@H]3COC4)cc2n(Cc2cc(F)c(F)c(F)c2)c1=O` [Compound I-0381] it was less than 100 nM.

The experiment is the same for the next values; noted with them: read-out: IC50 (50% SARS-CoV-2 3CL protease inhibitory concentration).
With `CNC(=O)c1ccc(Cl)c(-c2cc(OC)c3c(=O)n(-c4cncc(C)c4)c(=O)n(Cc4ccc(F)c(C#N)c4)c3c2)c1` [Compound I-0192], the IC50 was less than 100 nM.
As to `COc1cc(-c2cc(C(=O)NCCCO)ccc2Cl)cc2c1c(=O)n(-c1cncc(C)c1)c(=O)n2Cc1ccc(F)c(C#N)c1` [Compound I-0193], the IC50 turned out to be 9 nM.
Turning to `COc1cc(-c2cc(C(=O)NCCOCCO)ccc2Cl)cc2c1c(=O)n(-c1cncc(C)c1)c(=O)n2Cc1ccc(F)c(C#N)c1` [Compound I-0196], the IC50 stood at 11 nM.
`COc1cc(-c2cc(CC(=O)NC3CCN(C)CC3)ccc2Cl)cc2c1c(=O)n(-c1cncc(Cl)c1)c(=O)n2Cc1cc(F)c(F)c(F)c1` [Compound I-0197]: the IC50 was less than 100 nM.
Regarding `COc1cc(-c2cc(CC(=O)O)ccc2Cl)cc2c1c(=O)n(-c1cncc(Cl)c1)c(=O)n2Cc1cc(Cl)ccc1C` [Compound I-0198], the IC50 was less than 100 nM.
With `CN=S(C)(=O)c1ccc(Cl)c(-c2cc(OC)c3c(=O)n(-c4cncc(Cl)c4)c(=O)n(Cc4cc(F)c(F)c(F)c4)c3c2)c1` (stereo not drawn) [Compound I-0199], the IC50 was 16 nM.
As to `COc1cc(-c2cc(CC(=O)NC3CCN(C)CC3)ccc2Cl)cc2c1c(=O)n(-c1cncc(Cl)c1)c(=O)n2Cc1ccc(F)c(C#N)c1` [Compound I-0201], the IC50 is less than 100 nM.
Regarding `COc1cc(-c2cc(CC(=O)NCCS(C)(=O)=O)ccc2Cl)cc2c1c(=O)n(-c1cncc(Cl)c1)c(=O)n2Cc1cc(F)c(F)c(F)c1` [Compound I-0202], the IC50 was 20 nM.
For the compound `COc1cc(-c2cc(CC(=O)NCCN(C)C)ccc2Cl)cc2c1c(=O)n(-c1cncc(Cl)c1)c(=O)n2Cc1ccc(F)c(C#N)c1` [Compound I-0203], the IC50 was less than 100 nM.
The same measure, in the same setting: then `COc1cc(-c2cc(CC(=O)NCCN(C)C)ccc2Cl)cc2c1c(=O)n(-c1cncc(Cl)c1)c(=O)n2Cc1cc(F)c(F)c(F)c1` [Compound I-0204], with less than 100 nM; and `COc1cc(-c2cc(CC(=O)N(C)C)ccc2Cl)cc2c1c(=O)n(-c1cncc(Cl)c1)c(=O)n2Cc1cc(Cl)ccc1C` [Compound I-0205], with less than 100 nM; and `COc1cc(-c2cc(CC(N)=O)ccc2Cl)cc2c1c(=O)n(-c1cncc(Cl)c1)c(=O)n2Cc1cc(F)c(F)c(F)c1` [Compound I-0206], with less than 100 nM.
Turning to `COc1cc(-c2cc(S(C)(=N)=O)ccc2Cl)cc2c1c(=O)n(Cc1ncn(C)n1)c(=O)n2Cc1cc(F)c(F)c(F)c1` (stereo not drawn) [Compound I-0207], the IC50 was found to be 23 nM.
Turning to `COc1cc(-c2cc(C(=O)N3CCOCC3)ccc2Cl)cc2c1c(=O)n(-c1cncc(C)c1)c(=O)n2Cc1ccc(F)c(C#N)c1` [Compound I-0209], the IC50 is less than 100 nM.
Turning to `COc1cc(-c2cc(N=S(C)(C)=O)ccc2Cl)cc2c1c(=O)n(-c1cncc(Cl)c1)c(=O)n2Cc1cc(F)c(F)c(F)c1` [Compound I-0210], the IC50 is 28 nM.
Still for that read-out and setting: then `COc1cc(-c2cc(CC(=O)N3CC[C@H](N)C3)ccc2Cl)cc2c1c(=O)n(-c1cncc(Cl)c1)c(=O)n2Cc1cc(F)c(F)c(F)c1` [Compound I-0211], with less than 100 nM.
For `COc1cc(-c2cc(C(=O)NCCN(C)C)ccc2Cl)cc2c1c(=O)n(Cc1ncn(C)n1)c(=O)n2Cc1cc(F)c(F)c(F)c1` [Compound I-0212], the IC50 was less than 100 nM.
On the same count and under the same terms, in the case of `CNC(=O)c1ccc(Cl)c(-c2cc(OC)c3c(=O)n(Cc4ncn(C)n4)c(=O)n(Cc4cc(F)c(F)c(F)c4)c3c2)c1` [Compound I-0213] it was 33 nM.
On to `COc1cc(-c2cc(C(=O)NCCO)ccc2Cl)cc2c1c(=O)n(Cc1ncn(C)n1)c(=O)n2Cc1cc(F)c(F)c(F)c1` [Compound I-0214], for which the IC50 was less than 100 nM.
On the same count and under the same terms, then `COc1cc(-c2cc(C(=O)NCCNCCO)ccc2Cl)cc2c1c(=O)n(Cc1ncn(C)n1)c(=O)n2Cc1cc(F)c(F)c(F)c1` [Compound I-0216], with less than 100 nM.
Regarding `COc1cc(-c2cc(C(=O)NCCN3CCOCC3)ccc2Cl)cc2c1c(=O)n(Cc1ncn(C)n1)c(=O)n2Cc1cc(F)c(F)c(F)c1` [Compound I-0217], the IC50 was less than 100 nM.
Regarding `Cc1cc2c(=O)n(Cc3ncn(C)n3)c(=O)n(Cc3cc(F)c(F)c(F)c3)c2cc1-c1cc2c(cc1Cl)NC(=O)C2` [Compound I-0248], the IC50 amounted to 7.3 nM.
Same read-out and setting: in the case of `Cn1cnc(Cn2c(=O)c3cc(F)c(-c4cc5c(cc4Cl)NC(=O)C5)cc3n(Cc3cc(F)c(F)c(F)c3)c2=O)n1` [Compound I-0249] it was 33 nM.
As for `Cn1cnc(Cn2c(=O)c3ccc(-c4cc5c(cc4Cl)NC(=O)C5)c(F)c3n(Cc3cc(F)c(F)c(F)c3)c2=O)n1` [Compound I-0250], the IC50 was 35 nM.
The same measure, in the same setting: then `COc1cc(-c2cc3[nH]c(=O)[nH]c3cc2Cl)cc2c1c(=O)n(Cc1ncn(C)n1)c(=O)n2Cc1cc(F)c(F)c(F)c1` [Compound I-0265], with less than 100 nM.
The same measure, in the same setting: then `Cn1cnc(Cn2c(=O)c3c(F)cc(-c4cc5c(cc4Cl)NC(=O)C5)cc3n(Cc3cc(F)c(F)c(Cl)c3)c2=O)n1` [Compound I-0267], with less than 100 nM; and `COc1cc(-c2c(Cl)ccc3c(=O)n(C)ccc23)cc2c1c(=O)n(Cc1ncn(C)n1)c(=O)n2Cc1cc(F)c(F)c(F)c1` [Compound I-0268], with 7.5 nM.
Consider `Cn1cnc(Cn2c(=O)c3c(F)cc(-c4cc5cn[nH]c5cc4Cl)cc3n(Cc3cc(F)c(F)c(Cl)c3)c2=O)n1` [Compound I-0269], for which the IC50 is less than 100 nM.
Still for that read-out and setting: then `Cn1cnc(Cn2c(=O)c3c(F)cc(-c4cc5c(cc4Cl)NC(=O)C5)cc3n(Cc3cc(F)c(F)c(F)c3)c2=O)n1` [Compound I-0270], with less than 100 nM; and `COc1cc(-c2cc(C#N)ccc2Cl)cc2c1c(=O)n(Cc1ncn(C)n1)c(=O)n2Cc1cc(F)c(F)c(Cl)c1` [Compound I-0271], with less than 100 nM.
Still for that read-out and setting: in the case of `COc1cc(-c2cc3cn[nH]c3cc2Cl)cc2c1c(=O)n(Cc1ncn(C)n1)c(=O)n2Cc1cc(Cl)c(F)cc1F` [Compound I-0272] it was less than 100 nM; in that of `COc1cc(-c2c(Cl)ccc3c(=O)[nH]ccc23)cc2c1c(=O)n(Cc1ncn(C)n1)c(=O)n2Cc1cc(F)c(F)c(F)c1` [Compound I-0274], 15 nM.
The same measure, in the same setting: in the case of `COc1cc(-c2cc3c(cc2Cl)NC(=O)C3(C)C)cc2c1c(=O)n(Cc1ncn(C)n1)c(=O)n2Cc1cc(F)c(F)c(F)c1` [Compound I-0275] it was 19 nM; in that of `COc1cc(-c2cc(C(C)(C)O)ccc2Cl)cc2c1c(=O)n(Cc1ncn(C)n1)c(=O)n2Cc1cc(F)c(F)c(F)c1` [Compound I-0276], 24 nM; in that of `COc1cc(-c2c(Cl)ccc3c2CNC3=O)cc2c1c(=O)n(Cc1ncn(C)n1)c(=O)n2Cc1cc(F)c(F)c(F)c1` [Compound I-0277], 24 nM.
Consider `COc1cc(-c2c(Cl)ccc3c2CN(C)C3=O)cc2c1c(=O)n(Cc1ncn(C)n1)c(=O)n2Cc1cc(F)c(F)c(F)c1` [Compound I-0278], for which the IC50 came to 26 nM.
Turning to `COc1cc(-c2cc(C#N)ccc2Cl)cc2c1c(=O)n(Cc1ncn(C)n1)c(=O)n2Cc1cc(Cl)c(F)cc1F` [Compound I-0279], the IC50 is less than 100 nM.
In the case of `Cn1cnc(Cn2c(=O)c3c(F)cc(-c4cc(C#N)ccc4Cl)cc3n(Cc3cc(F)c(F)c(Cl)c3)c2=O)n1` [Compound I-0281], the IC50 was less than 100 nM.
In the case of `COc1cc(-c2cc(C(C)=O)ccc2Cl)cc2c1c(=O)n(Cc1ncn(C)n1)c(=O)n2Cc1cc(F)c(F)cc1F` [Compound I-0282], the IC50 is less than 100 nM.
Same read-out and setting: in the case of `COc1cc(-c2cc(C3COC3)ccc2Cl)cc2c1c(=O)n(Cc1ncn(C)n1)c(=O)n2Cc1cc(F)c(F)c(F)c1` [Compound I-0283] it was 32 nM; in that of `NC(=O)c1ccc(Cl)c(-c2ccc3c(=O)n(Cc4ccc[nH]c4=O)c(=O)n(Cc4cc(F)c(F)c(F)c4)c3c2)c1` [Compound I-0296], less than 100 nM.
Still for that read-out and setting: in the case of `NC(=O)c1ccc(Cl)c(-c2nc3c(cc2F)c(=O)n(Cc2ccc[nH]c2=O)c(=O)n3Cc2cc(F)c(F)c(F)c2)c1` [Compound I-0301] it was 98 nM; in that of `O=c1[nH]cccc1Cn1c(=O)c2c(n(Cc3cc(F)c(F)c(F)c3)c1=O)CCCC2` [Compound I-0325], 450 nM.
In the case of `Cn1cnc(Cn2c(=O)c3c4c(c(-c5cc6c(cc5Cl)NC(=O)C6)cc3n(Cc3cc(F)c(F)c(F)c3)c2=O)CCO4)n1` [Compound I-0353], the IC50 came out at 0.45 nM.
Same read-out and setting: then `COc1cc(-c2cc(CN=S(C)(C)=O)ccc2Cl)cc2c1c(=O)n(Cc1ncn(C)n1)c(=O)n2Cc1cc(F)c(F)c(F)c1` [Compound I-0363], with 35 nM; and `O=c1[nH]cccc1Cn1c(=O)c2ccc(N3C[C@@H]4CN[C@@H](C4)C3)cc2n(Cc2cc(F)c(F)c(F)c2)c1=O` [Compound I-0378], with less than 100 nM; and `O=c1[nH]cccc1Cn1c(=O)c2ccc(N3C[C@@H]4CC[C@H]3CN4)cc2n(Cc2cc(F)c(F)c(F)c2)c1=O` [Compound I-0380], with 14 nM.
Same read-out and setting: in the case of `COc1nc(N2CC[C@@H](O)C2)cc2c1c(=O)n(Cc1ncn(C)n1)c(=O)n2Cc1cc(F)c(F)c(Cl)c1` [Compound I-0388] it was 20 nM.
Still for that read-out and setting: then `COc1nc(N2C[C@H]3C[C@@H]2CN3)cc2c1c(=O)n(Cc1ncn(C)n1)c(=O)n2Cc1cc(F)c(F)c(F)c1` [Compound I-0389], with 1.9 nM; and `Cn1cnc(Cn2c(=O)c3ccc(N4C[C@H]5C[C@@H]4CN5)cc3n(Cc3cc(F)c(F)c(F)c3)c2=O)n1` [Compound I-0393], with less than 100 nM; and `COc1cc(N2C[C@H]3C[C@@H]2CN3)cc2c1c(=O)n(Cc1ncn(C)n1)c(=O)n2Cc1cc(F)c(F)c(F)c1` [Compound I-0395], with 2.2 nM.
As to `COc1cc(N2C[C@H]3C[C@@H]2CN3)cc2c1c(=O)n(-c1cncc(Cl)c1)c(=O)n2Cc1cc(F)c(F)c(F)c1` [Compound I-0396], the IC50 is 1.3 nM.
